Experimental data from patent US12258344B2, “Azaaromatic amide derivatives for the treatment of cancer” (SHENZHEN FORWARD PHARMACEUTICALS CO., LTD., priority 2019, dated 2025).

Key:
Format in all cases: cell-based
BaF3 (EGFR-A763insFQEA) = BaF3 (EGFR-A763insFQEA) (Homo sapiens, UniProt P00533, INS763FQEA, cells depend on it); experiment: Test 3: BaF3 (EGFR-A763insFQEA) cell proliferation test; settings: 72 hours, Cell Titer-Glo, read-out: Test 3 - IC50
Procedure: Test 3: BaF3 (EGFR-A763insFOEA) Cell Proliferation Test
BaF3 (EGFR-A763insFQEA) was cultured in RPMI1640 medium containing 10% fetal bovine serum and 2 mM glutamine. The cells were grown at 37° C. in a humidified incubator with 5% CO2.
(§1) The number of viable cells in the culture was measured according to the protocol described in Promega's Cell Titer-Glo Luminescent cell Viability Assay (Promega catalog number #G7570). 90 μl of cells (3,000 cells/well) were cultured in growth medium in a Corning black transparent bottom 96-well plate, and cultured in a 5% CO2 humidified incubator at 37° C. overnight. The compound serially diluted in 100% DMSO was added to the cells using a pipette, and the cells were incubated for another 72 hours. 100 μl of the mixed Cell Titer-Glo reagent was added to the cells in the 96-well culture plate to lyse the cells and mix gently. Subsequently, the […] was detected on the Envision microplate detector to obtain the data of each compound. Finally, the data was input into a suitable software package (such as Prism) for curve fitting analysis.

BaF3 (EGFR-N771insH) = BaF3 (EGFR-N771insH) (Homo sapiens, UniProt P00533, INS771H, cells depend on it); experiment: Test 5: BaF3 (EGFR-N771insH) cell proliferation test; settings: 72 hours, Cell Titer-Glo, read-out: Test 5 - IC50
Chain of BaF3 (EGFR-N771insH) (P00533 with tags, fused parts or gaps INS771H): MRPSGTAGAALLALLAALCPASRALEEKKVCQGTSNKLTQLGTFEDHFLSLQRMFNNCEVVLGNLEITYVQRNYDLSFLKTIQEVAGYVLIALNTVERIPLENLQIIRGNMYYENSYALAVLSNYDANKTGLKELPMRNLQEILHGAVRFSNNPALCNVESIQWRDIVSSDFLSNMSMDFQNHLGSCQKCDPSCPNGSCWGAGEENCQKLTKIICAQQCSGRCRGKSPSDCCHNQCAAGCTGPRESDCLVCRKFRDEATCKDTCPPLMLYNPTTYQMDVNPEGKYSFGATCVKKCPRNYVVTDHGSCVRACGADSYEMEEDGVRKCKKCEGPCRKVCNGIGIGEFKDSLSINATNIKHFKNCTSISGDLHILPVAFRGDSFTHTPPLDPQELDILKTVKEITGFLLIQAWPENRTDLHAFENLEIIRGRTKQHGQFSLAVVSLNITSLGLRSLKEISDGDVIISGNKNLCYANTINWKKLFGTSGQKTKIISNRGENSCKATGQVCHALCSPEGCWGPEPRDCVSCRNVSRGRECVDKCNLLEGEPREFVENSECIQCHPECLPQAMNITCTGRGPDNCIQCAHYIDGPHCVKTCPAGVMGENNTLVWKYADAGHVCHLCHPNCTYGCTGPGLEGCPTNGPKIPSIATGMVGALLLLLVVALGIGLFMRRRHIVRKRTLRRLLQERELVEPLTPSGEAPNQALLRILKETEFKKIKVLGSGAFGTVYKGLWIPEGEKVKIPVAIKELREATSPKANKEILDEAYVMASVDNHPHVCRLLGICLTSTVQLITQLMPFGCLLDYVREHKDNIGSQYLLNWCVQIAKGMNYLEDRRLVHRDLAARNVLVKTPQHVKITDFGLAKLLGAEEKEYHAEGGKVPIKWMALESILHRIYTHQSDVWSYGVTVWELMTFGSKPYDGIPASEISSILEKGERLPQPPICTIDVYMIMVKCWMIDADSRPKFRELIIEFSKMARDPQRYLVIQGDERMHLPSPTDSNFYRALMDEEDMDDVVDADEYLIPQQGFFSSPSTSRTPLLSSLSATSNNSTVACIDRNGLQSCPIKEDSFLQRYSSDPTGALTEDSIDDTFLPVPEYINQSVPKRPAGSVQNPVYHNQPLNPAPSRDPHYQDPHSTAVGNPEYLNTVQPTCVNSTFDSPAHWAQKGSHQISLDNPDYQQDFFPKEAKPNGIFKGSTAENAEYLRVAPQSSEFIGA
Procedure: Test 5: BaF3 (EGFR-N771insH) Cell Proliferation Test
BaF3 (EGFR-N771insH) was cultured in RPMI1640 medium containing 10% fetal bovine serum and 2 mM glutamine. The cells were grown at 37° C. in a humidified incubator with 5% CO2.
as §1

BaF3 (EGFR-S768I) = BaF3 (EGFR-S768I) (Homo sapiens, UniProt P00533, S768I, cells depend on it); experiment: Test 7: BaF3 (EGFR-S768I) cell proliferation test; settings: 72 hours, Cell Titer-Glo, read-out: Test 7 - IC50
Chain of BaF3 (EGFR-S768I) (P00533 whole entry S768I): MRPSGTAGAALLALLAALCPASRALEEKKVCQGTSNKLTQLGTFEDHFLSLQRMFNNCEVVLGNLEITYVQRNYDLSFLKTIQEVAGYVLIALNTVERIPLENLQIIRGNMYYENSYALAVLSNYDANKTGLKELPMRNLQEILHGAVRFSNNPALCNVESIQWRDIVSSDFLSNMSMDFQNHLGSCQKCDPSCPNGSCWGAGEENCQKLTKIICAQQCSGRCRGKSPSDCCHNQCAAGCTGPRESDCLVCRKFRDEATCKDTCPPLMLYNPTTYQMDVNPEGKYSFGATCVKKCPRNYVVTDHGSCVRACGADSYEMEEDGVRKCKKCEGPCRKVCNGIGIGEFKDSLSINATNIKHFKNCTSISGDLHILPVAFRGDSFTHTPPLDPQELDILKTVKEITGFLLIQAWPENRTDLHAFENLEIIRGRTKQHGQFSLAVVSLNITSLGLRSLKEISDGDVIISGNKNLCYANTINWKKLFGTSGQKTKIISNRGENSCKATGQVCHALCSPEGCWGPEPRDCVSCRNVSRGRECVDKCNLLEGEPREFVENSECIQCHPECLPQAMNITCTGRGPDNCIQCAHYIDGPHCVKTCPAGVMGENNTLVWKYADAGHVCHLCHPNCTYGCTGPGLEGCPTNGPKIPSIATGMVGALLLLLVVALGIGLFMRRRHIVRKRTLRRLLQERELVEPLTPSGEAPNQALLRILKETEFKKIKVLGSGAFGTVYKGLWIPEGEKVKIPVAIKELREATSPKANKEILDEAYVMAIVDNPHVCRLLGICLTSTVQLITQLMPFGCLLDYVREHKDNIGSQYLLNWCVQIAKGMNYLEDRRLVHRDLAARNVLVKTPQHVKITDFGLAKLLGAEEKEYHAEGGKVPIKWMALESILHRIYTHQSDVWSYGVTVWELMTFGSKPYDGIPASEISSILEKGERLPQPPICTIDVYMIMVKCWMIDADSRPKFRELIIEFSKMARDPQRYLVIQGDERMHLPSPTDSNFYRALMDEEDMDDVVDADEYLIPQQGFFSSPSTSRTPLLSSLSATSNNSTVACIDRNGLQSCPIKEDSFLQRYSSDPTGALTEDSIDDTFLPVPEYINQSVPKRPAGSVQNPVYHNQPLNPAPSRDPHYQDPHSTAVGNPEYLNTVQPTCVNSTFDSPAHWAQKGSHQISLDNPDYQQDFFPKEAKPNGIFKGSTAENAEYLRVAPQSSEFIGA
Procedure: Test 7: BaF3 (EGFR-S768I) Cell Proliferation Test
BaF3 (EGFR-S768I) was cultured in RPMI1640 medium containing 10% fetal bovine serum and 2 mM glutamine. The cells were grown at 37° C. in a humidified incubator with 5% CO2.
as §1

BaF3 (HER2-A775insYVMA) = BaF3 (HER2-A775insYVMA) (Homo sapiens, UniProt P04626, DUP772-775, cells depend on it); experiment: Test 9: BaF3 (HER2-A775insYVMA) cell proliferation test; settings: 72 hours, Cell Titer-Glo, read-out: Test 9 - IC50
Chain of BaF3 (HER2-A775insYVMA) (P04626 with tags, fused parts or gaps DUP772-775): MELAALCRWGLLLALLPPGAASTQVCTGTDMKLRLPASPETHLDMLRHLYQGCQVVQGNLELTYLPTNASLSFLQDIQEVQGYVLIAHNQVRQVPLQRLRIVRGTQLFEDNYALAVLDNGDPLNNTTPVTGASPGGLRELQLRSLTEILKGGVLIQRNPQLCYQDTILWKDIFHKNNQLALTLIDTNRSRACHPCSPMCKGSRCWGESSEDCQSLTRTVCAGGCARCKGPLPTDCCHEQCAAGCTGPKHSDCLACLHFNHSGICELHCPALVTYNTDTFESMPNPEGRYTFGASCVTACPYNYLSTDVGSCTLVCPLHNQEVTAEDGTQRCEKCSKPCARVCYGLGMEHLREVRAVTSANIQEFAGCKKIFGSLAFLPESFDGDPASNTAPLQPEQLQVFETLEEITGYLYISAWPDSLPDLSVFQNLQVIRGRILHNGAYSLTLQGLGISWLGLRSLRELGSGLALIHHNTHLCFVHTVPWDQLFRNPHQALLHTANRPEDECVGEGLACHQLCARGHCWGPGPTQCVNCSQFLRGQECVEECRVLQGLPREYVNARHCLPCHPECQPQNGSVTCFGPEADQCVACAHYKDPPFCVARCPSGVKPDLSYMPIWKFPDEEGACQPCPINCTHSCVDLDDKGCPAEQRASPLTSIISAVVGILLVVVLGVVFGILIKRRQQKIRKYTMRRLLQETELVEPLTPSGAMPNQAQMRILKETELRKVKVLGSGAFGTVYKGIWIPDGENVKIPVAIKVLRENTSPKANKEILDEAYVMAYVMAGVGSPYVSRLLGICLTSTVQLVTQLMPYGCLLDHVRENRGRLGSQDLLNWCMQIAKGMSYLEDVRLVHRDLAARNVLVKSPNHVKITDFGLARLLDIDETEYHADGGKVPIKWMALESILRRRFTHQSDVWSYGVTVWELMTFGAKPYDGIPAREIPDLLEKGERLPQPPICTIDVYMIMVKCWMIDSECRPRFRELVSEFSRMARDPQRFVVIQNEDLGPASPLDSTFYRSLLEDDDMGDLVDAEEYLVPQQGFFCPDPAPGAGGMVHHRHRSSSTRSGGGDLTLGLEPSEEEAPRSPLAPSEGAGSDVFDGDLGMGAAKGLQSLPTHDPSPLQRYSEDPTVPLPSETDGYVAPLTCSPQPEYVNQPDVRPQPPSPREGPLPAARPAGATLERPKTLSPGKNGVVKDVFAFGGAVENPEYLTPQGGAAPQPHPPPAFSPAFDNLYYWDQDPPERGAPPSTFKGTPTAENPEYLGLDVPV
Procedure: Test 9: BaF3 (HER2-A775insYVMA) Cell Proliferation Test
BaF3 (HER2-A775insYVMA) was cultured in RPMI1640 medium containing 10% fetal bovine serum and 2 mM glutamine. The cells were grown at 37° C. in a humidified incubator with 5% CO2.
as §1

Chain of BaF3 (EGFR-A763insFQEA) (P00533 with tags, fused parts or gaps INS763FQEA): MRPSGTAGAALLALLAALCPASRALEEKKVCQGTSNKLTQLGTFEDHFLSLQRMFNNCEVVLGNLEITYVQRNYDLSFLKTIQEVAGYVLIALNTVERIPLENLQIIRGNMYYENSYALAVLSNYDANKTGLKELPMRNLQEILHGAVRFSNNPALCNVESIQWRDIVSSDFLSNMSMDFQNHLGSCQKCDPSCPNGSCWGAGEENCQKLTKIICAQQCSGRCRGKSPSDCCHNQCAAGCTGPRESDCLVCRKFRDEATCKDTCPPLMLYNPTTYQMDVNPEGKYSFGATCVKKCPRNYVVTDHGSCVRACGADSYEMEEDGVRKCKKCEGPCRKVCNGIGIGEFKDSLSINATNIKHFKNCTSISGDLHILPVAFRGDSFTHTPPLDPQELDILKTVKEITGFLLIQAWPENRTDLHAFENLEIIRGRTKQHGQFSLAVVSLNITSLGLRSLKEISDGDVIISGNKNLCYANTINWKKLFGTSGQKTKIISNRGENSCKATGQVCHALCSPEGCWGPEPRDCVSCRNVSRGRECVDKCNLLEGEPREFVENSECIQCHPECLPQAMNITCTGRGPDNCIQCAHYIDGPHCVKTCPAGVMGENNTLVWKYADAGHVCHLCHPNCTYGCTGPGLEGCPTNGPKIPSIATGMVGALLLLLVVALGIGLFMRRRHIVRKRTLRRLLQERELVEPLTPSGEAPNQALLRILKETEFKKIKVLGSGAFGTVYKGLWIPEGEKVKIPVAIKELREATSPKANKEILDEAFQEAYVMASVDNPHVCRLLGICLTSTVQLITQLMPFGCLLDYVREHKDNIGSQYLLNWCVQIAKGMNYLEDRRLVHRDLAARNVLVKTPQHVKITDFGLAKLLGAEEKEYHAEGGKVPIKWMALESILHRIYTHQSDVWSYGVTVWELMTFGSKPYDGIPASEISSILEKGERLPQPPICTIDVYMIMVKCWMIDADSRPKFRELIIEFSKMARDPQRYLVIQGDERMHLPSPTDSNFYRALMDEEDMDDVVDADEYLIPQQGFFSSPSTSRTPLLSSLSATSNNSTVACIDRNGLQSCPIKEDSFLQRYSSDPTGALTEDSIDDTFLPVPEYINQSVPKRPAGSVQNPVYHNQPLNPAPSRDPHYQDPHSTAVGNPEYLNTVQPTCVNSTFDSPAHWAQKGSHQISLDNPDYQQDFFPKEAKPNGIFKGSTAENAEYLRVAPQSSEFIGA

SMILES | GI50 (BaF3 (EGFR-A763insFQEA)) [nM] | GI50 (BaF3 (EGFR-N771insH)) [nM] | GI50 (BaF3 (EGFR-S768I)) [nM] | GI50 (BaF3 (HER2-A775insYVMA)) [nM]
C=CC(=O)Nc1cc(Nc2ncnc(-c3cn(C)c4ccc(F)cc34)n2)c(OC)cc1N(C)CCN(C)C [Example 11] | 9.45 | 9.19 | 38.1 | 14.2
C=CC(=O)Nc1cc(Nc2ncnc(-c3cn(C)c4ccc(F)cc34)n2)c(OC(F)F)cc1N(C)CCN(C)C [Example 14, N-(4-(difluoromethoxy)-2-((2-(dimethylamino)ethyl)(methyl)amino)-5-((4-(5-fluoro-1-methyl-1H-indol-3-yl)-1,3,5-triazin-2-yl)amino)phenyl)acrylamide] | 7.6 | 9.21 | 8.91 | 12.4
C=CC(=O)Nc1cc(Nc2ncnc(-c3cn(C)c4ccc(F)cc34)n2)c(OCC(F)(F)F)cc1N(C)CCN(C)C [Example 15, N-(2-((2-(dimethylamino)ethyl)(methyl)amino)-5-((4-(5-fluoro-1-methyl-1H-indol-3-yl)-1,3,5-triazin-2-yl)amino)-4-(2,2,2-trifluoroethoxy)phenyl)acrylamide] | 14 | 7.66 | 7.41 | 10.8
